Source: ChEMBL document CHEMBL3390844, “Development of substituted 7-phenyl-4-aminobenzothieno[3,2-d] pyrimidines as potent LIMK1 inhibitors” (Medchemcomm, 2011)
In brackets after ≈: the same amount, converted by molar mass.

What was measured:
LIM domain kinase 1 [1] = target: T1, LIM domain kinase 1 (Homo sapiens, UniProt P53667); assay: Inhibition of LIMK1 (unknown origin) assessed as remaining ATP level using cofilin-2 protein as substrate measured after 60 mins incubation with enzyme by KinaseGlo assay
LIM domain kinase 1 [2] = target: T1, LIM domain kinase 1; assay: Inhibition of LIMK1 (unknown origin) assessed as ADP formation using cofilin-2 protein as substrate measured after 60 mins incubation with enzyme by Transcreener assay
LIM domain kinase 2 = LIM domain kinase 2 (Homo sapiens, UniProt P53671); assay: Inhibition of LIMK2 (unknown origin)
[3] = In vitro intrinsic clearance in mouse liver microsomes at 1 uM by LC-MS analysis; assay type: ADME; conditions: read-out: CLH
[4] = Solubility of the compound in 0.01 M HCl at pH 2 by nephelometry; assay type: physicochemical
[5] = In vitro intrinsic clearance in human liver microsomes at 1 uM by LC-MS analysis; assay type: ADME; conditions: read-out: CLH
[6] = Partition coefficient, log D of the compound at pH 7.4 by HPLC analysis; assay type: physicochemical; conditions: octanol/water
[7] = Solubility of the compound in phosphate buffer at pH 6.5 by nephelometry; assay type: physicochemical
[8] = Plasma protein binding in human by LC-MS analysis; assay type: ADME, cell-free; conditions: read-out: PPB (converted)
LIM domain kinase 1 [9] = target: T1, LIM domain kinase 1; assay: Inhibition of LIMK1-catalyzed cofilin phosphorylation in human ZR-75-1 cells; assay type: cell-based

T1 sequence (P53667 whole entry, the tested form may be a part): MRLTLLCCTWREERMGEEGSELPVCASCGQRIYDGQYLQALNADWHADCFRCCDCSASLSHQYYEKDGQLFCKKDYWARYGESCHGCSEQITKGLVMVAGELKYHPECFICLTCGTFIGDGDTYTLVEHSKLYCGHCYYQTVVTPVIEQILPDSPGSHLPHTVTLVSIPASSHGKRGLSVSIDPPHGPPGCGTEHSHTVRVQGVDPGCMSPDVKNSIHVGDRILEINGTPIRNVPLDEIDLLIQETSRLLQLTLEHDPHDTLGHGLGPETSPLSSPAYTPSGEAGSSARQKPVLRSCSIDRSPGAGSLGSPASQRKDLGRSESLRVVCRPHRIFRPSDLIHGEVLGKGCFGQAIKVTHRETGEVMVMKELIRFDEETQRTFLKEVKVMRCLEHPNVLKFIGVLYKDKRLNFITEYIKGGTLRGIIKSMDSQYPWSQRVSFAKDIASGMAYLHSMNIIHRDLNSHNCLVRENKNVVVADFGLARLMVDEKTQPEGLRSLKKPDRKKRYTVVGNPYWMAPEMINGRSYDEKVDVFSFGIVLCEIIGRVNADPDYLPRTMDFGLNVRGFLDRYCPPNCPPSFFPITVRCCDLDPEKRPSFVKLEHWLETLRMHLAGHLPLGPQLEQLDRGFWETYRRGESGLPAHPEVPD
Sequence of LIM domain kinase 2 (P53671 whole entry, the tested form may be a part): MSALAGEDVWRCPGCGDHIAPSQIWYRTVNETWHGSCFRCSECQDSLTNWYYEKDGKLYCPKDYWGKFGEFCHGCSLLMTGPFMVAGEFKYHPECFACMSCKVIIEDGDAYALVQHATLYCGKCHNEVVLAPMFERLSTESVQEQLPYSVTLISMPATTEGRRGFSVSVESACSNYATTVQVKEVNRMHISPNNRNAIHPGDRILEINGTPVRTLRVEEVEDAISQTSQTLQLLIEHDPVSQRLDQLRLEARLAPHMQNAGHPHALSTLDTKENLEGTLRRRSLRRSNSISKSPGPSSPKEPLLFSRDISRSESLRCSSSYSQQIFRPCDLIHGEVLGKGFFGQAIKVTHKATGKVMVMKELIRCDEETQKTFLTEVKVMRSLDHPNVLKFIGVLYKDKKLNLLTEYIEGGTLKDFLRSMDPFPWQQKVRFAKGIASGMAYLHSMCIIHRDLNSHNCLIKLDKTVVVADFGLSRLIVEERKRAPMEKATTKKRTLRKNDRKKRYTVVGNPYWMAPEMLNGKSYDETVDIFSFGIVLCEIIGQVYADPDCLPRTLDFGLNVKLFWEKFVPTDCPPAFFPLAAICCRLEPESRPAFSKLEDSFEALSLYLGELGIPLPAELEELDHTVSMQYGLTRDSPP

Row | SMILES | IC50 (LIM domain kinase 1 [1]) | IC50 (LIM domain kinase 1 [2]) | other results
1 | Nc1ccc(-c2ccc3c(c2)sc2c(N)ncnc23)cc1 | 159 nM |  | 
2 | Nc1ccccc1-c1ccc2c(c1)sc1c(N)ncnc12 | 310 nM |  | 
3 | Nc1ncnc2c1sc1cc(-c3cccc(O)c3)ccc12 | 230 nM |  | 
4 | Nc1ncnc2c1sc1cc(-c3ccc(O)cc3)ccc12 | 267 nM |  | 
5 | Cn1c2cc(-c3ccc(O)cc3)ccc2c2ncnc(N)c21 |  | 571 nM | 
6 | CCNC(=O)Nc1ncc(-c2cc(-c3c(C)cc(OC)cc3C)nc(-c3cnccn3)n2)s1 |  | 54 nM | IC50 (LIM domain kinase 2): 696 nM; microsomal CLint at 1 µM [3]: 10 µL/min/mg; solubility kinetic [4]: 1.6 µg/mL (≈ 3.47 µM); microsomal CLint at 1 µM [5]: < 5 µL/min/mg; logD [6]: 3; solubility kinetic [7]: 1.6 µg/mL (≈ 3.47 µM)
7 | CS(=O)(=O)c1ccc(-c2ccc3c(c2)sc2c(N)ncnc23)cc1 | 376 nM |  | 
8 | Nc1ncnc2c1sc1cc(-c3cccc(C(=O)N4CCOCC4)c3)ccc12 |  | > 1000 nM | 
9 | Nc1ncnc2c1sc1cc(-c3ccccc3Cl)ccc12 | > 1000 nM |  | 
10 | Nc1ncnc2c1sc1cc(-c3ccc(NC=O)cc3)ccc12 | 44 nM |  | 
11 | COc1cccc(-c2ccc3c(c2)sc2c(N)ncnc23)c1 | 149 nM |  | 
12 | Nc1ncnc2c1sc1cc(-c3ccccc3)ccc12 |  |  | microsomal CLint at 1 µM [3]: 839 µL/min/mg; solubility kinetic [4]: 6.3 µg/mL (≈ 22.7 µM); microsomal CLint at 1 µM [5]: 114 µL/min/mg; logD [6]: 3.65; solubility kinetic [7]: < 1.6 µg/mL
13 | Nc1cccc(-c2ccc3c(c2)sc2c(N)ncnc23)c1 | 231 nM |  | 
14 | CS(=O)(=O)Nc1ccc(-c2ccc3c(c2)sc2c(N)ncnc23)cc1 | 243 nM |  | 
15 | Nc1ncnc2c1sc1cc(-c3ccc(CO)cc3)ccc12 | 163 nM |  | 
16 | CC(C)C(=O)Nc1ncc(-c2cc(C(F)F)nn2-c2c(Cl)cccc2Cl)s1 |  |  | fraction unbound [8]: 0.029; logD [6]: 3.8
17 | NC(=O)c1cccc(-c2ccc3c(c2)sc2c(N)ncnc23)c1 | 120 nM | 120 nM | IC50 (LIM domain kinase 1 [9]): > 30000 nM; IC50 (LIM domain kinase 2): 273 nM; microsomal CLint at 1 µM [3]: 26 µL/min/mg; fraction unbound [8]: 0.037; solubility kinetic [4]: 25 µg/mL (≈ 78 µM); microsomal CLint at 1 µM [5]: < 5 µL/min/mg; logD [6]: 1.9; solubility kinetic [7]: 3.1 µg/mL (≈ 9.68 µM)
18 | Nc1ncnc2c1sc1cc(-c3ccncc3)ccc12 | 732 nM |  | 
19 | Nc1ncnc2c1sc1cc(-c3cccc(C(=O)O)c3)ccc12 | 196 nM |  | 
20 | CC(C)CNC(=O)Nc1cccc(-c2ccc3c(c2)sc2c(N)ncnc23)c1 |  | 237 nM | 
21 | Cn1c2cc(-c3cccc(C(N)=O)c3)ccc2c2ncnc(N)c21 |  | 379 nM | 
22 | Nc1ncnc2c1sc1cc(-c3cccc(C(=O)NCCO)c3)ccc12 |  | 228 nM | 
23 | COc1ccc(-c2ccc3c(c2)sc2c(N)ncnc23)cc1 | 204 nM |  | 
